This is an account of results in US20050003022A1 (priority 2002, published 2005).

The test system of series [1] is influenza virus. The arrangement: species or system small mice. As to conditions: in vivo.
Series [2] has as its system influenza. The note with it: in vivo; cited from earlier work.
The conditions of series [3]: in vivo; cited from earlier work.

Take `NC(=O)c1ncn([C@@H]2O[C@H](CO)[C@@H](O)[C@H]2O)n1` [Ribavirin]: in series [1], the “small mouse protection ratio (ED50)” value worked out at 25 mg/kg.
For the compound `CC(=O)N[C@H]1[C@H]([C@H](O)[C@H](O)CO)OC(C(=O)O)=C[C@@H]1N=C(N)N` [Zanamivir], in series [2], the “median day for alleviating influenza symptoms” value was 6.5 days and the “reduction from average influenza case” value is 1.3 days. Besides, in series [3], the “utilization ratio of oral taken drug” value is 2%.
